Measurements reported in patent US11413279B2, “Methods and compositions for the antiviral use of synthetic lysine analogs and mimetics” (priority 2017, dated 2022).
Values joined by “and” are separate entries in the source; they are usually repeats but may differ in a detail not shown here. Equal entries are not always repeated. Where two headings read alike, the source gives them in different places.

How the values were obtained:
[1] = tested on: Herpes Simplex Virus Type 1 (HSV-1); type: cell-based
Description: (§1) Contact time for each sample was 48±2 hours and Log10 titer reductions were generated using the input viral titer (Log10TCID50) and the output viral titer (Log10TCID50).
The plate was incubated for 48±2 hours at 36±2° C. with 5±3% CO2. The plate was then frozen at −60 to −90° C., thawed, and the contents of each well centrifuged at 2,000 RPM for 10 minutes. The supernatant from each well was collected and assayed for infectious virus.
as §1

[2] = tested on: Herpes Simplex Virus Type 1 (HSV-1); assay: Antiviral activity of tranexamic acid/L-arginine against HSV-1; type: cell-based; details: for Viral Promotion (%) / Output Viral Titer (Log10TCID50) / Titer (Log10TCID50/mL) / Viral Reduction (%): contact time 48 ± 8 hours; for Log10 Titer Difference: vs input virus control average 6.39
[3] = tested on: Herpes Simplex Virus Type 2 (HSV-2); assay: Antiviral activity of tranexamic acid/L-arginine against HSV-2; type: cell-based; details: contact time 48 ± 8 hours
[4] = tested on: cell medium used for HSV-1 and HSV-2; assay: Cytotoxicity limit in the cell medium used for HSV-1 and HSV-2
[5] = tested on: Herpes Simplex Virus Type 1 (HSV-1); details: contact time 48 ± 8 hours
[6] = tested on: Herpes Simplex Virus Type 2 (HSV-2); details: contact time 48 ± 8 hours
[7] = tested on: recurrent outbreaks of cold sores; assay: Topical treatment and prophylactic use in human subjects with recurrent cold sores; type: in vivo
[8] = 5,000 μM L-arginine alone, listed as L-arginine
[9] = 10,000 μM L-arginine alone, listed as L-arginine
[10] = tranexamic acid 0.5% (w/v), high virus inocula
[11] = tranexamic acid 0.5% (w/v), low virus inocula
[12] = tranexamic acid 0.5% (w/v), low virus inocula, listed as tranexamic acid
[13] = tranexamic acid 1.0% (w/v), high virus inocula
[14] = tranexamic acid 1.0% (w/v), high virus inocula, listed as tranexamic acid
[15] = tranexamic acid 1.0% (w/v), low virus inocula
[16] = tranexamic acid 1.0% (w/v), low virus inocula, listed as tranexamic acid
[17] = tranexamic acid 2.0% (w/v), high virus inocula
[18] = 2% (w/v) tranexamic acid alone, listed as tranexamic acid

N=C(N)NCCC[C@H](N)C(=O)O [L-Arginine, L-arginine]
Log10 titer reduction (peak of replicates) ([1]; 0.5 mM L-arginine alone, vs input virus control average): 0.28 Log10
Log10 titer reduction (peak of replicates) ([1]; 2 mM L-arginine alone, vs input virus control average): 0.04 Log10
Log10 Titer Reduction ([1]; 5 mM L-arginine alone, vs input virus control average): no Log10 titer reduction
Log10 Titer Reduction ([1]; 5 mM L-arginine, HSV-1, contact time 48 ± 2 hours, input viral titer 8.50, 3 replicates): No reduction
Viral Promotion (%) [2, 8]: 54%
Output Viral Titer (Log10TCID50) ([2]; 10,000 μM L-arginine alone): 7.21 Log10TCID50 and 7.09 Log10TCID50 and 7.15 Log10TCID50
Titer (Log10TCID50/mL) ([2]; 10,000 μM L-arginine alone): 7.21 ± 0.06 Log10TCID50/mL and 7.09 ± 0.09 Log10TCID50/mL and 7.15 ± 0.08 Log10TCID50/mL
Viral Promotion (%) ([2]; 10,000 μM L-arginine alone): 85% and 80% and 83%
Viral Promotion (%) [2, 9]: 85%
Log10 Titer Difference ([2]; 10,000 μM L-arginine alone): 0.82 Log10 and 0.70 Log10 and 0.76 Log10
Viral Promotion (%) ([2]; 25,000 μM L-arginine alone): 85% and 74% and 65%
Viral Promotion (%) ([2]; 25,000 μM L-arginine alone, listed as L-arginine): 85%
Viral Promotion (%) ([3]; 5,000 μM L-arginine alone): 44% and 76%
Viral Reduction (%) ([3]; 5,000 μM L-arginine alone): 32%
Viral Promotion (%) [3, 8]: 76%
Viral Promotion (%) [3, 9]: 76%
Viral Promotion (%) ([3]; 25,000 μM L-arginine alone): 3%
Viral Reduction (%) ([3]; 25,000 μM L-arginine alone): 66%

NC[C@H]1CC[C@H](C(=O)O)CC1 [Tranexamic Acid, tranexamic acid]
maximum concentration that could be used without cytotoxicity [4]: 2 % (w/v)
Output Viral Titer (Log10TCID50) [5, 10]: 6.19 Log10TCID50 and 6.43 Log10TCID50 and 6.37 Log10TCID50
Reduction (%) [5, 10]: 45.9%
Titer (Log10TCID50/mL) [5, 10]: 6.19 ± 0.08 Log10TCID50/mL and 6.43 ± 0.13 Log10TCID50/mL and 6.37 ± 0.11 Log10TCID50/mL
Output Viral Titer (Log10TCID50) [5, 11]: 5.24 Log10TCID50 and 5.54 Log10TCID50
Reduction (%) [5, 11]: 62.9% and 90.5% and 81.0%
Reduction (%) [5, 12]: 90.5%
Output Viral Titer (Log10TCID50) [5, 13]: 6.43 Log10TCID50 and 6.61 Log10TCID50
Titer (Log10TCID50/mL) [5, 13]: 6.43 ± 0.12 Log10TCID50/mL and 6.61 ± 0.11 Log10TCID50/mL and 6.43 ± 0.13 Log10TCID50/mL
Reduction (%) [5, 14]: 5.9%
Output Viral Titer (Log10TCID50) [5, 15]: 4.34 Log10TCID50
Reduction (%) [5, 15]: 97.9% and 98.8% and 75.5%
Reduction (%) [5, 16]: 98.8%
Output Viral Titer (Log10TCID50) [5, 17]: 5.71 Log10TCID50 and 5.42 Log10TCID50
Reduction (%) [5, 17]: 82.1% and 90.8%
Titer (Log10TCID50/mL) [5, 17]: 5.71 ± 0.12 Log10TCID50/mL and 5.42 ± 0.06 Log10TCID50/mL
Reduction (%) ([5]; tranexamic acid 2.0% (w/v), high virus inocula, listed as tranexamic acid): 90.8%
Titer (Log10TCID50/mL) [1]: 7.15 ± 0.08 Log10TCID50/mL and 7.21 ± 0.06 Log10TCID50/mL and 7.27 ± 0.00 Log10TCID50/mL
Log10 titer reduction (peak of replicates) ([1]; 2% (w/v) tranexamic acid alone, vs input virus control average): 1.29 Log10
Reduction (%) [6, 10]: 52.85%
Output Viral Titer (Log10TCID50) [6, 11]: 5.77 Log10TCID50 and 5.71 Log10TCID50
Reduction (%) [6, 11]: 78.94% and 64.24% and 68.85%
Titer (Log10TCID50/mL) [6, 11]: 5.54 ± 0.09 Log10TCID50/mL and 5.77 ± 0.10 Log10TCID50/mL and 5.71 ± 0.08 Log10TCID50/mL
Reduction (%) [6, 12]: 78.94%
Output Viral Titer (Log10TCID50) [6, 13]: 7.62 Log10TCID50 and 7.44 Log10TCID50 and 7.38 Log10TCID50
Reduction (%) [6, 13]: 37.85% and 58.94% and 64.24%
Titer (Log10TCID50/mL) [6, 13]: 7.62 ± 0.08 Log10TCID50/mL and 7.44 ± 0.11 Log10TCID50/mL and 7.38 ± 0.10 Log10TCID50/mL
Reduction (%) [6, 14]: 64.24%
Output Viral Titer (Log10TCID50) [6, 15]: 5.60 Log10TCID50 and 5.83 Log10TCID50 and 5.89 Log10TCID50
Reduction (%) [6, 15]: 75.82% and 58.94% and 52.85%
Titer (Log10TCID50/mL) [6, 15]: 5.89 ± 0.10 Log10TCID50/mL and 5.60 ± 0.09 Log10TCID50/mL and 5.83 ± 0.08 Log10TCID50/mL
Reduction (%) [6, 16]: 75.82%
Reduction (%) [6, 17]: 99.98% and 99.85%
Output Viral Titer (Log10TCID50) ([2]; 2% (w/v) tranexamic acid alone): 5.30 Log10TCID50 and 5.12 Log10TCID50
Titer (Log10TCID50/mL) ([2]; 2% (w/v) tranexamic acid alone): 5.24 ± 0.08 Log10TCID50/mL and 5.30 ± 0.10 Log10TCID50/mL and 5.12 ± 0.10 Log10TCID50/mL
Viral Reduction (%) ([2]; 2% (w/v) tranexamic acid alone): 93% and 92% and 95%
Viral Reduction (%) [2, 18]: 95%
Log10 Titer Difference ([2]; 2% (w/v) tranexamic acid alone): −1.15 Log10 and −1.09 Log10 and −1.27 Log10
Viral Reduction (%) ([3]; 2% (w/v) tranexamic acid alone): 99.6% and 99.7% and 99.3%
Viral Reduction (%) [3, 18]: 99.7%
outcome of cold sore outbreak ([7]; fourth subject, 10% (w/v) tranexamic acid topically a single time at onset): the following morning the blister was gone and the outbreak had ceased
cold sore outbreaks during the year ([7]; one subject, 3 or 10% (w/v) tranexamic acid applied to face daily for approximately one year, usual experience 3 to 5 outbreaks): one
time until cold sore had healed to only a small red spot ([7]; person, approximately 0.25 mL aqueous solution of 5% (w/v) tranexamic acid by swab, 5 times over 36 hours): ≤ 36 h
time until symptoms of the outbreak resolved ([7]; three human subjects, 3% (w/v) tranexamic acid topically several times a day from beginning of outbreak, usual duration about 2 weeks): ≤ 48 h

N[C@@H](Cc1c[nH]cn1)C(=O)O [L-Histidine, L-histidine]
Titer (Log10TCID50/mL) ([1]; 0.5 mM L-histidine alone, contact time 48 ± 2 hours): 8.46 ± 0.09 Log10TCID50/mL and 8.76 ± 0.06 Log10TCID50/mL and 8.76 ± 0.10 Log10TCID50/mL
Log10 titer reduction (peak of replicates) ([1]; 0.5 mM L-histidine alone, vs input virus control average): 0.04 Log10
Output Viral Titer (Log10TCID50) ([1]; 0.5 mM L-histidine, HSV-1, contact time 48 ± 2 hours, 3 replicates): 8.46 Log10TCID50 and 8.76 Log10TCID50 (2×)
Titer (Log10TCID50/mL) ([1]; 1 mM L-histidine alone, contact time 48 ± 2 hours): 8.70 ± 0.11 Log10TCID50/mL and 8.40 ± 0.11 Log10TCID50/mL
Log10 titer reduction (peak of replicates) ([1]; 1 mM L-histidine alone, vs input virus control average): 0.10 Log10
Output Viral Titer (Log10TCID50) ([1]; 1 mM L-histidine, HSV-1, contact time 48 ± 2 hours, 3 replicates): 8.76 Log10TCID50 and 8.70 Log10TCID50 and 8.40 Log10TCID50
Titer (Log10TCID50/mL) ([1]; 5 mM L-histidine alone, contact time 48 ± 2 hours): 8.52 ± 0.10 Log10TCID50/mL and 8.82 ± 0.08 Log10TCID50/mL and 8.64 ± 0.06 Log10TCID50/mL
Log10 Titer Reduction ([1]; 5 mM L-histidine alone, vs input virus control average): no Log10 titer reduction
Output Viral Titer (Log10TCID50) ([1]; 5 mM L-histidine, HSV-1, contact time 48 ± 2 hours, 3 replicates): 8.52 Log10TCID50 and 8.82 Log10TCID50 and 8.64 Log10TCID50
Log10 Titer Reduction ([1]; 5 mM L-histidine, HSV-1, contact time 48 ± 2 hours, input viral titer 8.50, 3 replicates): No reduction
Titer (Log10TCID50/mL) ([1]; 10 mM L-histidine alone, contact time 48 ± 2 hours): 8.70 ± 0.00 Log10TCID50/mL and 8.64 ± 0.06 Log10TCID50/mL
Log10 Titer Reduction ([1]; 10 mM L-histidine alone, vs input virus control average): no Log10 titer reduction
Output Viral Titer (Log10TCID50) ([1]; 10 mM L-histidine, HSV-1, contact time 48 ± 2 hours, 3 replicates): 8.70 Log10TCID50 and 8.64 Log10TCID50 (2×)
Log10 Titer Reduction ([1]; 10 mM L-histidine, HSV-1, contact time 48 ± 2 hours, input viral titer 8.50, 3 replicates): No reduction
Titer (Log10TCID50/mL) ([1]; 25 mM L-histidine alone, contact time 48 ± 2 hours): 8.64 ± 0.10 Log10TCID50/mL and 8.52 ± 0.12 Log10TCID50/mL and 8.70 ± 0.00 Log10TCID50/mL

NC[C@H]1CC[C@H](C(=O)O)CC1 [Tranexamic Acid (TA)]
Output Viral Titer (Log10TCID50) ([1]; 2% (w/v) tranexamic acid, HSV-1, contact time 48 ± 2 hours, 3 replicates): 7.15 Log10TCID50 and 7.21 Log10TCID50 and 7.27 Log10TCID50
Log10 Titer Reduction ([1]; 2% (w/v) tranexamic acid, HSV-1, contact time 48 ± 2 hours, input viral titer 8.50, 3 replicates): 1.35 Log10 and 1.29 Log10 and 1.23 Log10
